Data: patent publication US10731187B2, “Recombinant strain producing O-aminobenzoate and fermentative production of aniline from renewable resources via 2-aminobenzoic acid” (Covestro Deutschland AG, priority 2014, dated 2020)

System: Corynebacterium glutamicum
Assay: Small-scale fermentation (1 L fermenters, pH 7, glucose fed) with supplementation
Format: cell-based
Conditions: pH 7, fermenter
Text: The results obtained in the shake flask experiments with C. glutamicum were reproduced in small-scale fermenters (FIG. 21). […]. The glucose-fed allowed the strain to grow to higher cell densities.
. This confirmed the results obtained in shake flasks (see FIG. 22). […] It was concluded that 1-dodecanol is a suitable oAB extraction solvent.
In a further experiment the concentration of oAB was increased to investigate the effect on the C. glutamicum strain. The four fermenters were hereto supplemented with 0 g/L, 15 g/L, 35 g/L and 80 g/L of oAB. […] The rest of the cultivation conditions was kept as described above. […] Cultures supplemented with 15 g/L oAB have shown an extensive lag-phase over 34-48 h before growth was recovered and cells entered the exponential phase (see FIG. 24). An oAB degradation during fermentation was again excluded by HPLC measurements of culture supernatants (data not shown).

SMILES: Nc1ccccc1C(=O)O [oAB, 2-aminobenzoic acid]
- growth (OD600) (7 g/L): prolonged lag-phase but finally same cell densities were reached
- lag-phase before growth was recovered (15 g/L oAB (ammonium salt)): 34 to 48 h
- growth (OD600) (35 g/L oAB (ammonium salt)): growth inhibition
- growth (OD600) (80 g/L oAB (ammonium salt), over 54 hours): dying (lysis) of the cells
